Assay results: the kinase profiling compilation of Christmann-Franck et al. (2016)

Legend:
Experiment in all cases: radiometric filter-binding kinase assay, Kinase HotSpot
Details in all cases: compound 0.5 µM; ATP 10 µM
ACVRL1 (human) = ACVRL1 (human) (UniProt P37023)
HIPK2 (human) = HIPK2 (human) (UniProt Q9H2X6)
DYRK3 (human) = DYRK3 (human) (UniProt O43781)
ULK1 (human) = ULK1 (human) (UniProt O75385)
CSNK1E (human) = CSNK1E (human) (UniProt P49674)
TEK (human) = TEK (human) (UniProt Q02763)
GRK4 (human) = GRK4 (human) (UniProt P32298)
CDK7 CCNH MNAT1 (human) = CDK7 CCNH MNAT1 (human) (UniProt P50613+P51948+P51946)
MAP3K3 (human) = MAP3K3 (human) (UniProt Q99759)
PNCK (human) = PNCK (human) (UniProt Q6P2M8)
CLK1 (human) = CLK1 (human) (UniProt P49759)
CDK9 CCNK (human) = CDK9 CCNK (human) (UniProt O75909+P50750)
DYRK4 (human) = DYRK4 (human) (UniProt Q9NR20)
DYRK2 (human) = DYRK2 (human) (UniProt Q92630)
FGFR3 (human) = FGFR3 (human) (UniProt P22607)
CAMK2G (human) = CAMK2G (human) (UniProt Q13555)
SRPK2 (human) = SRPK2 (human) (UniProt P78362)
CSNK2A1 (human) = CSNK2A1 (human) (UniProt P68400)
MAP3K11 (human) = MAP3K11 (human) (UniProt Q16584)
TNK2 (human) = TNK2 (human) (UniProt Q07912)
RPS6KB2 (human) = RPS6KB2 (human) (UniProt Q9UBS0)
CAMK4 (human) = CAMK4 (human) (UniProt Q16566)
SGK2 (human) = SGK2 (human) (UniProt Q9HBY8)
BTK (human) = BTK (human) (UniProt Q06187)
NEK7 (human) = NEK7 (human) (UniProt Q8TDX7)
SRPK3 (human) = SRPK3 (human) (UniProt Q9UPE1)
CLK3 (human) = CLK3 (human) (UniProt P49761)
BRSK2 (human) = BRSK2 (human) (UniProt Q8IWQ3)
GSK3B (human) = GSK3B (human) (UniProt P49841)
NEK3 (human) = NEK3 (human) (UniProt P51956)
MAP3K10 (human) = MAP3K10 (human) (UniProt Q02779)
ERBB2 (human) = ERBB2 (human) (UniProt P04626)
RPS6KA6 KD1 KD2 (human) = RPS6KA6 KD1 KD2 (human) (UniProt Q9UK32)
ROCK1 (human) = ROCK1 (human) (UniProt Q13464)
PRKACA (human) = PRKACA (human) (UniProt P17612)
ABL1 (human) = ABL1 (human) (UniProt P00519)
STK10 (human) = STK10 (human) (UniProt O94804)
EPHA4 (human) = EPHA4 (human) (UniProt P54764)
CSNK1A1 (human) = CSNK1A1 (human) (UniProt P48729)
RIPK2 (human) = RIPK2 (human) (UniProt O43353)
MAPK1 (human) = MAPK1 (human) (UniProt P28482)
MINK1 (human) = MINK1 (human) (UniProt Q8N4C8)

Chain of FGFR3 (human) (P22607 whole entry, looked up): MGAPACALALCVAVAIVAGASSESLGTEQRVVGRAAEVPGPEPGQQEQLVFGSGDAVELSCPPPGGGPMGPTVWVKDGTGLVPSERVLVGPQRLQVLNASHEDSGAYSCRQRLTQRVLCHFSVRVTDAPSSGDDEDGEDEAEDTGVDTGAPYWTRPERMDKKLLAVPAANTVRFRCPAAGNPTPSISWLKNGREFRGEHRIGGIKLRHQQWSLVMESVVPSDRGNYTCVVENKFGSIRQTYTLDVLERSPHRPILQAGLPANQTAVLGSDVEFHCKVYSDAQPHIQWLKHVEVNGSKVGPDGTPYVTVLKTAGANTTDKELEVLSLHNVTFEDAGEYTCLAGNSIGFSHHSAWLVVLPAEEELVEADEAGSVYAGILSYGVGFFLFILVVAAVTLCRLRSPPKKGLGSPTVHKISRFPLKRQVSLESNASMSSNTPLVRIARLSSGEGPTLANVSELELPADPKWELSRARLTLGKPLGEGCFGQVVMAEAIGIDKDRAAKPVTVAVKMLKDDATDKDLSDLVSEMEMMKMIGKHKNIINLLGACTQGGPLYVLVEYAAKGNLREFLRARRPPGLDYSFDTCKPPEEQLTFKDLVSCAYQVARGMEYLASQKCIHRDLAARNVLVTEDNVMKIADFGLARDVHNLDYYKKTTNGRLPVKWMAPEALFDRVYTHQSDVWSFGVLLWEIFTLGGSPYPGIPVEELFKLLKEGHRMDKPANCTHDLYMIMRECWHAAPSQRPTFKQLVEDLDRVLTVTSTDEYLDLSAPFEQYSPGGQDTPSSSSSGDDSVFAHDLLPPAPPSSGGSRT
Chain of NEK7 (human) (Q8TDX7 whole entry, looked up): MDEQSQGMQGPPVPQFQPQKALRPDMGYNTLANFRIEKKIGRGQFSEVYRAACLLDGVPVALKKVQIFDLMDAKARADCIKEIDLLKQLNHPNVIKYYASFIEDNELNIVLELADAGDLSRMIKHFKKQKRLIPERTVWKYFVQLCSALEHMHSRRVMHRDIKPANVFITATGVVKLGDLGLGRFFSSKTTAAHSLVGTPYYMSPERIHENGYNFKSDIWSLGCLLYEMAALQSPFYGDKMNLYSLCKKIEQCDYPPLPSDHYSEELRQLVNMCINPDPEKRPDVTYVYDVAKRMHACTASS
Chain of SRPK2 (human) (P78362 whole entry, looked up): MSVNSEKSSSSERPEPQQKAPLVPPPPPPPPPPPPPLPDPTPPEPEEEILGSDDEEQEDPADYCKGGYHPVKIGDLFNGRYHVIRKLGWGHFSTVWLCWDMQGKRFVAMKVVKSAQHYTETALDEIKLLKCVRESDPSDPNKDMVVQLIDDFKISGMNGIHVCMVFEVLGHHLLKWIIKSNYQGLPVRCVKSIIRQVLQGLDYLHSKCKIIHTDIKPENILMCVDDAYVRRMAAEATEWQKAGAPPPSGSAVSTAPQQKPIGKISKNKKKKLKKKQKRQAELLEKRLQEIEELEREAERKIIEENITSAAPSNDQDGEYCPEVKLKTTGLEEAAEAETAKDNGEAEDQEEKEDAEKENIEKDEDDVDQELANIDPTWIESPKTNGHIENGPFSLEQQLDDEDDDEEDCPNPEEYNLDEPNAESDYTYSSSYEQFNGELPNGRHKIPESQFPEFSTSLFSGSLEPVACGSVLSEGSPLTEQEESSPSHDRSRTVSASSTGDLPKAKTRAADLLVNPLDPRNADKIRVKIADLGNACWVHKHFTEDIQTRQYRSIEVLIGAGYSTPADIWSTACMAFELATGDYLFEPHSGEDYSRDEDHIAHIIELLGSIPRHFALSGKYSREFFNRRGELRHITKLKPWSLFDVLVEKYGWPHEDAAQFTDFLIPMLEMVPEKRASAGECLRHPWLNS
Chain of ROCK1 (human) (Q13464 whole entry, looked up): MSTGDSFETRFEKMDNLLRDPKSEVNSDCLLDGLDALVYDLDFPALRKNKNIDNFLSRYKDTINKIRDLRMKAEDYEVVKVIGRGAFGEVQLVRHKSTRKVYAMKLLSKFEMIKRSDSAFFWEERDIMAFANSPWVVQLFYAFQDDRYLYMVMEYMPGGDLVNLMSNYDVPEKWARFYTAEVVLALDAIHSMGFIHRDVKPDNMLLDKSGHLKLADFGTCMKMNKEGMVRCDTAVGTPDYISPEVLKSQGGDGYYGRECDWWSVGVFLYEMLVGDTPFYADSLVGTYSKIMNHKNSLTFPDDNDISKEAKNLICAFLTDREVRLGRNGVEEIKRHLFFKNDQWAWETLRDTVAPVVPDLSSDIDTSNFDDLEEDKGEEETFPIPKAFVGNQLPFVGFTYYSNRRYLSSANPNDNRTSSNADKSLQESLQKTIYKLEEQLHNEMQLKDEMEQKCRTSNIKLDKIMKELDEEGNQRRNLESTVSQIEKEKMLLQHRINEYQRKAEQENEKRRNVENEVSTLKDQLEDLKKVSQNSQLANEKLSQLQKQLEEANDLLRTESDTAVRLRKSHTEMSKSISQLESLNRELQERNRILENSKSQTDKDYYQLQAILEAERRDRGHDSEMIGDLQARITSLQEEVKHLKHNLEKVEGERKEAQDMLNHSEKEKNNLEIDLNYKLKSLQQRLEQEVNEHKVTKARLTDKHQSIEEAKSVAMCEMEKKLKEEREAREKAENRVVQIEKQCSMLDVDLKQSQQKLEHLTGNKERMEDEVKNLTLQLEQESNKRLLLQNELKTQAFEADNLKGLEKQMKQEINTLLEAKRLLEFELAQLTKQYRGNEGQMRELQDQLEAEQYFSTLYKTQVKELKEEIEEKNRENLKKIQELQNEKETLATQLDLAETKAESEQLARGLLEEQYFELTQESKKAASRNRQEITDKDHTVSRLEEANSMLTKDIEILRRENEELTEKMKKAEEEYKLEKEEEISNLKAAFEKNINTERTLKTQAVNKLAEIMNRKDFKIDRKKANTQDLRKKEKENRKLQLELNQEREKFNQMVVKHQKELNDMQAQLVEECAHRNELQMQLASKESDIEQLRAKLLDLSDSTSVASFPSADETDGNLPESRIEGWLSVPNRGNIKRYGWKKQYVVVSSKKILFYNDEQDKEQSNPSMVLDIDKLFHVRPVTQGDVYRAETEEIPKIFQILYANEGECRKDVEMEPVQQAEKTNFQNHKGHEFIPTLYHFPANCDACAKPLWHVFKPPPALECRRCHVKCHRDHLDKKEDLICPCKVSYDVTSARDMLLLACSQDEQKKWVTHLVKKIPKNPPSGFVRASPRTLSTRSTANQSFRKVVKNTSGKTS
Chain of DYRK2 (human) (Q92630 whole entry, looked up): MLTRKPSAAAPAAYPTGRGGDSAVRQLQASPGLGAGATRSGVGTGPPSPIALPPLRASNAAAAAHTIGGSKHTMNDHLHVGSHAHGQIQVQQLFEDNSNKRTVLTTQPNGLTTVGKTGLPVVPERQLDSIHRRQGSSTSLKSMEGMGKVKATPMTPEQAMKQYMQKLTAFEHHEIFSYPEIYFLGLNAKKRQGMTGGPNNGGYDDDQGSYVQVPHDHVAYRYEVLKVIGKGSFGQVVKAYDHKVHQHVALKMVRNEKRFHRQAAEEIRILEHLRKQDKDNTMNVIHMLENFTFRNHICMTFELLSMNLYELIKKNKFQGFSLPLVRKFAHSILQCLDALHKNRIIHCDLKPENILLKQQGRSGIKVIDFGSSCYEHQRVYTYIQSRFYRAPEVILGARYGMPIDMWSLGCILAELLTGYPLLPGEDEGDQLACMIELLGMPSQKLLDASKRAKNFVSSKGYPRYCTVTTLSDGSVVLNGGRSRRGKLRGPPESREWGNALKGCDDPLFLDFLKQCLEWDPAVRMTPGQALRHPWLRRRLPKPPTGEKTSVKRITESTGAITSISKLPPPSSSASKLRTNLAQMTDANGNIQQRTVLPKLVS
Chain of CAMK2G (human) (Q13555 whole entry, looked up): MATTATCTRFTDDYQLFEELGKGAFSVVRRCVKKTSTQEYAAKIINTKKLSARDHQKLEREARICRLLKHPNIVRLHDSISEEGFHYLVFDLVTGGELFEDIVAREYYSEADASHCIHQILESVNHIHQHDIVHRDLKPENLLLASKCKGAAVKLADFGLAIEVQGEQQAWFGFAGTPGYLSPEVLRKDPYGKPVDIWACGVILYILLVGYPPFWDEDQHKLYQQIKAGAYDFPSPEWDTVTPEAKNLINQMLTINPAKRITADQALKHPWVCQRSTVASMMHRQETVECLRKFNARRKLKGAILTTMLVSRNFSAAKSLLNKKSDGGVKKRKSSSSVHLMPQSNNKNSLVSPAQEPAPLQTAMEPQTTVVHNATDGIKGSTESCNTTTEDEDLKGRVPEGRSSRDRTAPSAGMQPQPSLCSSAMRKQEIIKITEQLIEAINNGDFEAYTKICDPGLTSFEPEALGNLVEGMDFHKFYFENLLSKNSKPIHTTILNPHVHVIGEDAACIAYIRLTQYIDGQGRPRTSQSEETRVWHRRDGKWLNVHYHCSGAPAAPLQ
Chain of CSNK1A1 (human) (P48729 whole entry, looked up): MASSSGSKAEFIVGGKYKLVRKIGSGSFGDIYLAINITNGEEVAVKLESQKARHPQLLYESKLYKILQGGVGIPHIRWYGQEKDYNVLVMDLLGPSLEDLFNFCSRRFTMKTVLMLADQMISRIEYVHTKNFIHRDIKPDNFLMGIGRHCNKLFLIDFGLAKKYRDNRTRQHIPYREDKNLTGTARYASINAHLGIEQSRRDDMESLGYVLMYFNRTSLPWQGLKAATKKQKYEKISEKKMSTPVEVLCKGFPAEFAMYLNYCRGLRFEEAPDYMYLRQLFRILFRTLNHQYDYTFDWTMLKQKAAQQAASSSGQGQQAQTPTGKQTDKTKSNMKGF
Chain of CSNK2A1 (human) (P68400 whole entry, looked up): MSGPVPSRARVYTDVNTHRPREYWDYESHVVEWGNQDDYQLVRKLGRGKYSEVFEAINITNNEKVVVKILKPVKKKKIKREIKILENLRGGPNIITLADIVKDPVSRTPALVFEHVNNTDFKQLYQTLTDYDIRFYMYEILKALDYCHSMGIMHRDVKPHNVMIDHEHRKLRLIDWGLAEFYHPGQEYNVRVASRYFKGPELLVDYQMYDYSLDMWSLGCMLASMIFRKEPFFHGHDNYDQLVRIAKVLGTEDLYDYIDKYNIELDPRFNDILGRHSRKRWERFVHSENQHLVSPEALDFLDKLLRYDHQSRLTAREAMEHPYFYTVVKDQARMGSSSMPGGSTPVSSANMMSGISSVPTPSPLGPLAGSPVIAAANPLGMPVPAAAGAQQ

## COc1ccc(OC)c2c(=S)c3ccccc3[nH]c12
ACVRL1 (human)
  residual activity: 99%
HIPK2 (human)
  residual activity: 98.3%
DYRK3 (human)
  residual activity: 98.2%
ULK1 (human)
  residual activity: 114%
CSNK1E (human)
  residual activity: 90.3%
TEK (human)
  residual activity: 100%
GRK4 (human)
  residual activity: 103%
CDK7 CCNH MNAT1 (human)
  residual activity: 91.7%
MAP3K3 (human)
  residual activity: 117%
PNCK (human)
  residual activity: 97.3%
CLK1 (human)
  residual activity: 98.4%
CDK9 CCNK (human)
  residual activity: 92.2%
DYRK4 (human)
  residual activity: 107%
DYRK2 (human)
  residual activity: 96.8%
FGFR3 (human)
  residual activity: 94.9%
CAMK2G (human)
  residual activity: 95.8%
SRPK2 (human)
  residual activity: 95.1%
CSNK2A1 (human)
  residual activity: 100%
MAP3K11 (human)
  residual activity: 107%
TNK2 (human)
  residual activity: 96.3%
RPS6KB2 (human)
  residual activity: 105%
CAMK4 (human)
  residual activity: 101%
SGK2 (human)
  residual activity: 96.5%
BTK (human)
  residual activity: 102%
NEK7 (human)
  residual activity: 97.2%
SRPK3 (human)
  residual activity: 96.8%
CLK3 (human)
  residual activity: 96.3%
BRSK2 (human)
  residual activity: 92.5%
GSK3B (human)
  residual activity: 61.3%
NEK3 (human)
  residual activity: 107%
MAP3K10 (human)
  residual activity: 92.8%
ERBB2 (human)
  residual activity: 93.6%
RPS6KA6 KD1 KD2 (human)
  residual activity: 85.2%
ROCK1 (human)
  residual activity: 97.8%
PRKACA (human)
  residual activity: 97.5%
ABL1 (human)
  residual activity: 91.7%
STK10 (human)
  residual activity: 93.6%
EPHA4 (human)
  residual activity: 88.8%
CSNK1A1 (human)
  residual activity: 102%
RIPK2 (human)
  residual activity: 108%
MAPK1 (human)
  residual activity: 91.5%
MINK1 (human)
  residual activity: 95.9%

## CCn1cnc2c(Nc3cccc(Cl)c3)nc(N[C@@H]3CCCC[C@@H]3N)nc21
ACVRL1 (human)
  residual activity: 99.9%
HIPK2 (human)
  residual activity: 94%
DYRK3 (human)
  residual activity: 83.7%
ULK1 (human)
  residual activity: 74.5%
CSNK1E (human)
  residual activity: 92.1%
TEK (human)
  residual activity: 99.9%
GRK4 (human)
  residual activity: 96.2%
CDK7 CCNH MNAT1 (human)
  residual activity: 58.4%
MAP3K3 (human)
  residual activity: 103%
PNCK (human)
  residual activity: 98.5%
CLK1 (human)
  residual activity: 89.3%
CDK9 CCNK (human)
  residual activity: 46.9%
DYRK4 (human)
  residual activity: 95.1%
DYRK2 (human)
  residual activity: 107%
FGFR3 (human)
  residual activity: 90.4%
CAMK2G (human)
  residual activity: 104%
SRPK2 (human)
  residual activity: 80.7%
CSNK2A1 (human)
  residual activity: 84.2%
MAP3K11 (human)
  residual activity: 77.6%
TNK2 (human)
  residual activity: 92.4%
RPS6KB2 (human)
  residual activity: 103%
CAMK4 (human)
  residual activity: 103%
SGK2 (human)
  residual activity: 98.2%
BTK (human)
  residual activity: 82.5%
NEK7 (human)
  residual activity: 86%
SRPK3 (human)
  residual activity: 94.9%
CLK3 (human)
  residual activity: 99.8%
BRSK2 (human)
  residual activity: 94%
GSK3B (human)
  residual activity: 104%
NEK3 (human)
  residual activity: 100%
MAP3K10 (human)
  residual activity: 92.9%
ERBB2 (human)
  residual activity: 95.6%
RPS6KA6 KD1 KD2 (human)
  residual activity: 75.7%
ROCK1 (human)
  residual activity: 96.5%
PRKACA (human)
  residual activity: 102%
ABL1 (human)
  residual activity: 94%
STK10 (human)
  residual activity: 75.1%
EPHA4 (human)
  residual activity: 78.5%
CSNK1A1 (human)
  residual activity: 98.7%
RIPK2 (human)
  residual activity: 70%
MAPK1 (human)
  residual activity: 91.7%
MINK1 (human)
  residual activity: 95.2%

## O=C(O)/C=C/c1cc(Br)c(Br)c(Br)c1Br
ACVRL1 (human)
  residual activity: 103%
HIPK2 (human)
  residual activity: 82.2%
DYRK3 (human)
  residual activity: 100%
ULK1 (human)
  residual activity: 108%
CSNK1E (human)
  residual activity: 83.6%
TEK (human)
  residual activity: 94.4%
GRK4 (human)
  residual activity: 101%
CDK7 CCNH MNAT1 (human)
  residual activity: 88.6%
MAP3K3 (human)
  residual activity: 105%
PNCK (human)
  residual activity: 95.1%
CLK1 (human)
  residual activity: 98.5%
CDK9 CCNK (human)
  residual activity: 65.3%
DYRK4 (human)
  residual activity: 96.4%
DYRK2 (human)
  residual activity: 79.4%
FGFR3 (human)
  residual activity: 94.9%
CAMK2G (human)
  residual activity: 104%
SRPK2 (human)
  residual activity: 62%
CSNK2A1 (human)
  residual activity: 13.1%
MAP3K11 (human)
  residual activity: 96.3%
TNK2 (human)
  residual activity: 110%
RPS6KB2 (human)
  residual activity: 93.8%
CAMK4 (human)
  residual activity: 103%
SGK2 (human)
  residual activity: 59.7%
BTK (human)
  residual activity: 97.8%
NEK7 (human)
  residual activity: 98%
SRPK3 (human)
  residual activity: 66.9%
CLK3 (human)
  residual activity: 96.1%
BRSK2 (human)
  residual activity: 91.1%
GSK3B (human)
  residual activity: 105%
NEK3 (human)
  residual activity: 83.5%
MAP3K10 (human)
  residual activity: 92.3%
ERBB2 (human)
  residual activity: 95.4%
RPS6KA6 KD1 KD2 (human)
  residual activity: 86.9%
ROCK1 (human)
  residual activity: 97.6%
PRKACA (human)
  residual activity: 98.4%
ABL1 (human)
  residual activity: 81.5%
STK10 (human)
  residual activity: 85.8%
EPHA4 (human)
  residual activity: 88.8%
CSNK1A1 (human)
  residual activity: 79.3%
RIPK2 (human)
  residual activity: 88.4%
MAPK1 (human)
  residual activity: 98.5%
MINK1 (human)
  residual activity: 96%

## Oc1ccc(Nc2nc(-c3ccc(Cl)cc3)cs2)cc1
ACVRL1 (human)
  residual activity: 103%
HIPK2 (human)
  residual activity: 90.9%
DYRK3 (human)
  residual activity: 101%
ULK1 (human)
  residual activity: 84.2%
CSNK1E (human)
  residual activity: 103%
TEK (human)
  residual activity: 104%
GRK4 (human)
  residual activity: 90.5%
CDK7 CCNH MNAT1 (human)
  residual activity: 96.3%
MAP3K3 (human)
  residual activity: 101%
PNCK (human)
  residual activity: 100%
CLK1 (human)
  residual activity: 104%
CDK9 CCNK (human)
  residual activity: 102%
DYRK4 (human)
  residual activity: 95.9%
DYRK2 (human)
  residual activity: 91.2%
FGFR3 (human)
  residual activity: 96.5%
CAMK2G (human)
  residual activity: 90.6%
SRPK2 (human)
  residual activity: 104%
CSNK2A1 (human)
  residual activity: 101%
MAP3K11 (human)
  residual activity: 95.3%
TNK2 (human)
  residual activity: 103%
RPS6KB2 (human)
  residual activity: 99.8%
CAMK4 (human)
  residual activity: 99.7%
SGK2 (human)
  residual activity: 108%
BTK (human)
  residual activity: 107%
NEK7 (human)
  residual activity: 106%
SRPK3 (human)
  residual activity: 98.1%
CLK3 (human)
  residual activity: 92.6%
BRSK2 (human)
  residual activity: 101%
GSK3B (human)
  residual activity: 110%
NEK3 (human)
  residual activity: 98.4%
MAP3K10 (human)
  residual activity: 100%
ERBB2 (human)
  residual activity: 96.9%
RPS6KA6 KD1 KD2 (human)
  residual activity: 117%
ROCK1 (human)
  residual activity: 103%
PRKACA (human)
  residual activity: 105%
ABL1 (human)
  residual activity: 99.7%
STK10 (human)
  residual activity: 96.6%
EPHA4 (human)
  residual activity: 104%
CSNK1A1 (human)
  residual activity: 96.4%
RIPK2 (human)
  residual activity: 96.4%
MAPK1 (human)
  residual activity: 106%
MINK1 (human)
  residual activity: 103%
